From PMC6984391, “Anion carriers as potential treatments for cystic fibrosis: transport in cystic fibrosis cells, and additivity to channel-targeting drugs” (Chemical Science, 2019)
Like-named read-outs stand apart in the source and are kept apart here.

What was measured:
[1] = Affinity to Cl- in chloroform by extraction of Et4N+Cl- from water; type: binding; settings: extraction of Et4N^+Cl^– from water into chloroform at 303 K; new compound or new data
Experimental: Measurement of affinities to Et4N+Cl- in chloroform through extraction from […]
This method is adapted from Clare et al..4 The Et4N+Cl- salt was obtained from Sigma Aldrich and dried under vacuum overnight prior to solution preparation using deionised water that had been passed through a Millipore filtration system. All host solutions were prepared using chloroform that had been deacidified by passage through a flash chromatography column containing basic alumina.
A solution of host in deacidified chloroform was combined with 10 mL of aqueous Et4N+Cl-guest solution in a sample tube (30 mL). Concentrations and volumes are specified in Table
S1. A magnetic stirring bar (2 cm) was added to the tube and the lower half was immersed in a water bath heated to 303 K, while the contents were stirred vigorously to achieve good mixing of the two phases. After 30 minutes, stirring was stopped and the two phases were allowed to separate. The majority of the aqueous phase was then removed using a pipette and the remaining organic phase was centrifuged for 10 minutes at 4000 rpm. The chloroform solution was then filtered through Whatman 1PS hydrophobic filter paper to remove any remaining aqueous phase. Solvent from the filtrate was then removed in vacuo and the solid was further dried under vacuum. The resulting solids from the extraction experiments were dissolved in acetone-d6 and the solutions were analysed with 1H NMR spectroscopy.
A value for the molar ratio (R) was determined by integrating the signal at δ = 3.5 ppm (CH2 of Et4N+Cl-) against one of the receptor signals.
The values for R obtained from the 1H NMR spectra were used to calculate values for the equilibrium extraction constants Ke:
Horg + Xaq− + Yaq+ ⇌HX−Yorg+ Ke = org […]
To convert the extraction constants Ke into association constants Ka it is necessary to obtain the distribution constants Kd for the substrates between aqueous and organic phases:
The Kd value for tetraethylammonium chloride partitioning between water and chloroform has been determined and reported previously to be 1.269 × 10-5 M-1.5
The binding constant Ka is then calculated from Ke and Kd:
H + X−Y+ ⇌ HX−Y+ K = org = e […]
When [G] > 100 mM, the amount of salt that migrates from the aqueous phase into the organic phase without assistance of the host has to be taken into account by correcting the measured […]
Table S1. Overview of the conditions and results from the extraction experiments Receptor [H] (mM) [G] (mM) Vorg (mL) Vaq (mL) Rmeasured Ka (M-1)

[2] = system: YFP-FRT cells; test: YFP fluorescence plate reader assay of anion transport in YFP-FRT cells; type: cell-based, Fischer rat; settings: for Corrected absolute initial slope |dF/dT|: transporter 50 μM, DMSO 0.5% v/v, DMSO-only subtracted, I^– 100 mM; for anion transport activity in YFP-FRT cells (in words): 50 μM
Experimental: We treated YFP-FRT cells with anionophores (final concentration, 1–50 μM) or the vehicle DMSO (0.1–0.5% v/v) by direct addition to the phosphate-buffered saline (PBS) bathing the cells. After incubating YFP-FRT cells with anionophores for 10 minutes at 37 °C, we evaluated anion transport activity by adding I^– (100 mM), using a PBS iodide solution with Cl^– replaced by I^–, and following cell fluorescence for 14 s. FRT cells are relatively impermeable to anions because they lack key ion channels found in epithelial cells, including CFTR.[33] Thus, in the absence of anionophore, iodide cannot enter YFP-FRT cells and no quenching of fluorescence occurs. By contrast, in the presence of an anionophore, iodide influx occurs leading to fluorescence quenching.[29]
To quantify anion transport by different anionophores, we fitted first order exponential functions to the iodide-induced fluorescence decay to measure the initial slope, averaging values over multiple experiments. Fig. 2b and Table 1 summarise the data. Consistent with our previous results,[29] we observed a wide range of anion transport activity. […] We therefore selected for further study 11, 12, 15 and 19.
FRT cells stably expressing the halide sensor YFP-H148Q/I152L6 were generous gifts of AS Verkman (University of California, San Francisco), while CFBE41o- cells7 stably expressing YFP (YFP-CFBE cells) were a generous gift of LJV Galietta (Telethon Institute for […]
Genetics and Medicine). […]
U ml-1 penicillin and […] streptomycin. All cells were incubated at 37 °C in a humidified atmosphere with 5% CO2. […]
Fluorescence plate reader assay […]
quenching of YFP fluorescence at 37 °C using a microplate reader following the method of Galietta et al..9 The microplate reader (model: FLUORstar Omega; BMG LABTECH Ltd., Aylesbury, UK) was equipped with a syringe pump and excitation (500 ± 10 nm) and emission (535 ± 15 nm) filters (Chroma Technology GmbH, Olching, Germany). After washing cells twice with PBS (composition (mM): 137 NaCl, 2.7 KCl, 8.1 Na2HPO4, 1.5 KH2PO4, 1 CaCl2 and 0.5 MgCl2, pH 7.40), cells were incubated with test anionophores (1 – 50 µM) or the vehicle (DMSO [0.1 – 0.5% v v-1]) in 40 µl of PBS for 10 – 120 minutes according to the experimental design. Other compounds, including forskolin, ivacaftor and channel inhibitors were added to […]
the PBS bathing cells 10 minutes prior to PBS iodide addition, whereas UTP was added to cells with the PBS iodide solution. Fluorescence was measured for 14 seconds; 2 seconds before and 12 seconds after injection of 110 µl PBS iodide solution (137 mM Cl- replaced by I-) into each well (to obtain a final concentration of I- of 100 mM).
We expressed cell fluorescence values (F) relative to the fluorescence value immediately before I- injection (F0), excluding the initial decrease, which likely represents the quenching of extracellular YFP released from cells and signal reduction accompanying the increase in solution volume bathing cells. To quantify anion transport by test anionophores, we determined the initial slope of the fluorescence decay following I - addition by fitting first order exponential functions to the last 12 seconds of each fluorescence recording. In each experim ent, n values represent the mean of two replicates and all treatments were tested at least three times using different microplates. […]
FRT cells was selected and the cells were perfused with (i) PBS for 5 minutes then (ii) PBS containing I- (10 mM) (made by preparing PBS with 127 mM NaCl to maintain osmolarity) for 5 minutes and finally (iii) PBS for 30 minutes to remove thoroughly I- from the perfusion chamber. YFP-FRT cells were repeatedly treated with I- (10 mM) and then washed with PBS […]
During all interventions, the rate of solution perfusion was 8 – 10 ml min-1; temperature was 37 °C and except for the first

[3] = parameters: method as in ref [16 and 25], [20], [21], [22], [23], [24], [29] (Reference column); settings: 1H NMR titrations with Bu4N^+Cl^– in DMSO-d6/H2O (200 : 1) at 298 K; ref [16 and 25], [20], [21], [22], [23], [24], [29]; cited from earlier work
[4] = parameters: method as in PMID 22461434, PMID 21846096, PMID 29786913; settings: mol% carrier to lipid for 50% Cl^– efflux in 270 s; 490 mM NaCl inside, 490 mM NaNO3 outside; ref [22], [16 and 25]; cited from earlier work
[5] = parameters: method as in ref [20], [21], [23], [24], [29] (Reference column); settings: transporter preincorporated in LUVs (70% POPC + 30% cholesterol), 25 mM NaCl gradient, 225 mM NaNO3; ref [20], [21], [23], [24], [29]; cited from earlier work
[6] = Cl-/NO3- exchange in LUVs with preincorporated anionophore (lucigenin method); type: biochemical; settings: transporter preincorporated in LUVs (70% POPC + 30% cholesterol), 25 mM NaCl gradient, 225 mM NaNO3; new compound or new data
Experimental: The four new anionophores were tested for affinity to Cl^– (in CHCl3 and DMSO, with tetra-alkylammonium counter-ions), and for anion transport (Cl^–/NO3^– exchange) when preloaded into 200 nm large unilamellar vesicles (LUVs). The latter assay was performed using the well-established “lucigenin method”[30] in which Cl^– influx into vesicles is followed through quenching of fluorescence from the halide-sensitive fluorophore lucigenin. The results are listed in Table 1, accompanied by corresponding values for the previously-reported compounds where available. […] In this test, anion transport by anionophores delivered externally to LUVs is compared with their action when preloaded into LUV membranes.[24],[29],[32]
3. Transport studies in vesicles
Transport measurements in vesicles with preincorporated anionophores.
1-Palmitoyl-2-oleoyl-sn-glycero-3-phosphocholine (POPC) was obtained from Avanti® Polar Lipids, Inc. An extrusion apparatus and 200 nm polycarbonate membranes were obtained from GC Technology Ltd. All lipid and receptor solutions were prepared using chloroform that had been deacidified by passage through a flash chromatography column containing basic alumina, and all aqueous solutions were prepared using deionised water that had been passed through a Millipore filtration system.
POPC and cholesterol solutions (~10 mM) in deacidified chloroform were combined with a solution of transporter in methanol or deacidified chloroform in a 5 mL round bottomed flask.
Volumes of the aliquots were calculated from the concentrations of the lipid solution to obtain a POPC to cholesterol ratio of 7:3 (for instance by combining 4.20 µmol POPC and 1.80 µmol cholesterol). The ratio of anionophore to lipid (POPC + cholesterol) was either 1:2500 or 1:25000, as specified in the experiments. The solvents from the lipid/receptor mixture were evaporated under a stream of N2 and the lipid film was dried under high vacuum for 1 h. The residue was hydrated with 500 µL of an aqueous solution of 10,10'-dimethyl-9,9'-biacridinium nitrate (lucigenin, 0.8 mM) and NaNO3 (225 mM), sonicated for 30 s and stirred for 1 h to give heterogeneous vesicles. Multilamellar vesicles were disrupted by 10 freeze-thaw cycles and then the solution was diluted to 1 mL (by adding 0.5 mL of 225 mM NaNO3) and carefully extruded (29 times) through a polycarbonate membrane (200 nm pore size) to give a uniform distribution of LUVs with an average diameter of ~200 nm.2 The external lucigenin was removed by passing the solution though a size exclusion column (containing ~2 g Sephadex 50G, eluted with 225 mM NaNO3). The collected vesicles were further diluted with NaNO3 solution (225 mM) to obtain a vesicle solution with 0.4 mM lipid concentration. 3.00 mL of this vesicle solution was placed in a quartz cuvette with a small stir bar and the fluorescence intensity (excitation at 450 nm, emission at 535 nm) was measured over time at 25 °C, using a PerkinElmer LS45 fluorescence spectrometer. 75 µL of aqueous NaCl (1.0 M in 225 mM NaNO3, to give an overall external chloride concentration of 25 mM) was added ~30 seconds after the start of the experiment and the fluorescence intensity was measured for another 14 […]
Fluorescence data were collected for at least four replicate experiments. The plateau (before addition of chloride) and the vertical drop (the first 1-2.5 seconds after chloride addition, due to quenching of external lucigenin) were removed. Next the data were normalized: all fluorescence values (F) were divided by the fluorescence value before addition of chloride (F0).
Initial rates (I) were obtained from fluorescence -decay curves (0-500 s) by fitting their inverse (F0/F) to a double exponential decay function:
Differentiating this gives F = abe−bt + cde−dt […]
and substituting t = 0 gives the following equation for initial rate: I = ab + cd Specific initial rates [I] were obtained by dividing the initial rates by the anionophore to lipid […]

Structure (SMILES): S=C(NCCN(CCNC(=S)Nc1ccccc1)CCNC(=S)Nc1ccccc1)Nc1ccccc1 [Compound 17]
- K a to Cl^– in CHCl3 [1]: 5.2 × 10^5 ^b M^–1
- Corrected absolute initial slope |dF/dT| [2]: 0.5 ×10^–3 s^–1
- K a to Cl^– in DMSO [3]: 1.8 × 10^3 M^–1
- EC50, 270 s [4]: 0.31 mol%

Structure (SMILES): O=C(Nc1cc(C(F)(F)F)cc(C(F)(F)F)c1)Nc1cccc2cc3cccc(NC(=O)Nc4cc(C(F)(F)F)cc(C(F)(F)F)c4)c3cc12 [Compound 22]
- anion transport activity in YFP-FRT cells (in words) [2]: intermediate levels
- Corrected absolute initial slope |dF/dT| [2]: 9.0 ×10^–3 s^–1
- K a to Cl^– in DMSO [3]: 3.0 × 10^3 M^–1
- Specific initial rate [I] [5]: 1900 s^–1

Structure (SMILES): O=c1c(Nc2cc(C(F)(F)F)cc(C(F)(F)F)c2)c(Nc2cc(C(F)(F)F)cc(C(F)(F)F)c2)c1=O [Compound 3]
- Specific initial rate [I] [6]: 75 ^b s^–1
- Corrected absolute initial slope |dF/dT| [2]: 0 ×10^–3 s^–1
- K a to Cl^– in DMSO [3]: 6.4 × 10^2 M^–1
- EC50, 270 s [4]: 0.01 mol%

Structure (SMILES): CCc1c(CNC(=O)Nc2cc(C(F)(F)F)cc(C(F)(F)F)c2)c(CC)c(CNC(=O)Nc2cc(C(F)(F)F)cc(C(F)(F)F)c2)c(CC)c1CNC(=O)Nc1cc(C(F)(F)F)cc(C(F)(F)F)c1 [Compound 7]
- Corrected absolute initial slope |dF/dT| [2]: 0.2 ×10^–3 s^–1
- K a to Cl^– in DMSO [3]: 3.9 × 10^2 M^–1
- Specific initial rate [I] [5]: 50 s^–1

Structure (SMILES): O=C(Nc1ccc(C(F)(F)F)cc1)Nc1cccc2cc3cccc(NC(=O)Nc4ccc(C(F)(F)F)cc4)c3cc12 [Compound 21]
- Corrected absolute initial slope |dF/dT| [2]: 1.7 ×10^–3 s^–1
- K a to Cl^– in DMSO [3]: 2.2 × 10^3 M^–1
- Specific initial rate [I] [5]: 1200 s^–1

Structure (SMILES): O=c1c(Nc2ccccc2)c(Nc2ccccc2)c1=O [Compound 1]
- Corrected absolute initial slope |dF/dT| [2]: 0 ×10^–3 s^–1
- K a to Cl^– in DMSO [3]: 2.6 × 10^2 M^–1
- EC50, 270 s [4]: 1.38 mol%

Structure (SMILES): O=C(Nc1ccc([N+](=O)[O-])cc1)Nc1cccc2cc3cccc(NC(=O)Nc4ccc([N+](=O)[O-])cc4)c3cc12 [Compound 20]
- anion transport activity in YFP-FRT cells (in words) [2]: intermediate levels
- Corrected absolute initial slope |dF/dT| [2]: 8.4 ×10^–3 s^–1
- K a to Cl^– in DMSO [3]: 2.6 × 10^3 M^–1
- Specific initial rate [I] [5]: 2100 s^–1

Structure (SMILES): O=c1c(Nc2ccc(C(F)(F)F)cc2)c(Nc2ccc(C(F)(F)F)cc2)c1=O [Compound 2]
- Corrected absolute initial slope |dF/dT| [2]: 0.3 ×10^–3 s^–1
- K a to Cl^– in DMSO [3]: 4.6 × 10^2 M^–1
- EC50, 270 s [4]: 0.06 mol%

Structure (SMILES): CCc1c(CNC(=S)Nc2ccc([N+](=O)[O-])cc2)c(CC)c(CNC(=S)Nc2ccc([N+](=O)[O-])cc2)c(CC)c1CNC(=S)Nc1ccc([N+](=O)[O-])cc1 [Compound 4]
- Corrected absolute initial slope |dF/dT| [2]: 0.2 ×10^–3 s^–1
- K a to Cl^– in DMSO [3]: 3.8 × 10^2 M^–1
- Specific initial rate [I] [5]: 5 s^–1
